Experimental data as given in patent US6825170B2, “6-O-acyl ketolide antibacterials” (Ortho-McNeil Pharmaceutical, Inc., priority 2001, dated 2004).
In brackets after ≈: the same amount, converted by molar mass.

Assays:
Assay in all cases: MIC, microdilution broth method (NCCLS)
Format in all cases: cell-based
Conditions in all cases: 35° C., 16-20 hours
E. coli OC2605 = test system: E. coli OC2605
Method in brief: (§1)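 MIC taken from visual growth relative to compound-free wells in each tray. Incubation: 35° C for 16-20 h, cation-adjusted Mueller-Hinton broth, two-fold dilution series, ~5×10^4 CFU/well.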

E. faecalis ATCC29212 = test system: E. faecalis ATCC29212
Method in brief: as §1

H. influenzae ATCC49247 = test system: H. influenzae ATCC49247
Method in brief: as §1

S. aureus ATCC29213 = test system: S. aureus ATCC29213
Method in brief: as §1

S. pneumoniae ATCC49619 = test system: S. pneumoniae ATCC49619
Method in brief: as §1

Structure (SMILES)	MIC (A: E. coli OC2605) (E. coli OC2605) [µg/mL]	MIC (C: E. faecalis ATCC29212) (E. faecalis ATCC29212) [µg/mL]	MIC (E: H. influenzae ATCC49247) (H. influenzae ATCC49247) [µg/mL]	MIC (B: S. aureus ATCC29213) (S. aureus ATCC29213) [µg/mL]	MIC (D: S. pneumoniae ATCC49619) (S. pneumoniae ATCC49619) [µg/mL]	MIC (E. coli OC2605; Escherichia coli) [µg/mL]	MIC (E. faecalis ATCC29212; Enterococcus faecalis) [µg/mL]	MIC (H. influenzae ATCC49247; Haemophilus influenzae, read-out: MIC (E: H. influenzae ATCC49247)) [µg/mL]	MIC (S. aureus ATCC29213; Staphylococcus aureus, read-out: MIC (B: S. aureus ATCC29213)) [µg/mL]	MIC (S. pneumoniae ATCC49619; Streptococcus pneumoniae, read-out: MIC (D: S. pneumoniae ATCC49619)) [µg/mL]
CC[C@H]1OC(=O)[C@H](C)C(=O)[C@H](C)[C@@H](O[C@@H]2O[C@H](C)C[C@H](N(C)C)[C@H]2O)[C@](C)(OC(=O)NNCc2ccc(-c3cccnn3)cc2)C[C@@H](C)C(=O)[C@H](C)[C@H]2NC(=O)O[C@@]21C [Compound 675]	16 (≈ 19.4 µM)	0.12 (≈ 0.145 µM)	2 (≈ 2.42 µM)	0.5 (≈ 0.606 µM)	0.06 (≈ 0.0727 µM)	–	–	–	–	–
CC[C@H]1OC(=O)[C@H](C)C(=O)[C@H](C)[C@@H](O[C@@H]2O[C@H](C)C[C@H](N(C)C)[C@H]2O)[C@](C)(OC(=O)NNC/C=C/c2ccc(-c3ncccn3)cc2)C[C@@H](C)C(=O)[C@H](C)[C@H]2NC(=O)O[C@@]21C [Compound 805]	16 (≈ 18.8 µM)	0.25 (≈ 0.294 µM)	2 (≈ 2.35 µM)	0.25 (≈ 0.294 µM)	0.06 (≈ 0.0705 µM)	–	–	–	–	–
CC[C@H]1OC(=O)[C@H](C)C(=O)[C@H](C)[C@@H](O[C@@H]2O[C@H](C)C[C@H](N(C)C)[C@H]2O)[C@](C)(OC(=O)NN(C/C=C/c2ccc(-c3ncccn3)cc2)C/C=C/c2ccc(-c3ncccn3)cc2)C[C@@H](C)C(=O)[C@H](C)[C@H]2NC(=O)O[C@@]21C [Compound 806]	>16	1 (≈ 0.957 µM)	16 (≈ 15.3 µM)	2 (≈ 1.91 µM)	0.12 (≈ 0.115 µM)	–	–	–	–	–
CC[C@H]1OC(=O)[C@H](C)C(=O)[C@H](C)[C@@H](O[C@@H]2O[C@H](C)C[C@H](N(C)C)[C@H]2O)[C@](C)(OC(=O)NN2CCC(c3ccccc3)CC2)C[C@@H](C)C(=O)[C@H](C)[C@H]2NC(=O)O[C@@]21C [Compound 807]	–	–	–	–	–	> 16	1 (≈ 1.25 µM)	4 (≈ 4.99 µM)	2 (≈ 2.5 µM)	0.12 (≈ 0.15 µM)

More lines, now with the values ahead:

MIC (A: E. coli OC2605) (E. coli OC2605) [µg/mL]	MIC (C: E. faecalis ATCC29212) (E. faecalis ATCC29212) [µg/mL]	MIC (E: H. influenzae ATCC49247) (H. influenzae ATCC49247) [µg/mL]	MIC (B: S. aureus ATCC29213) (S. aureus ATCC29213) [µg/mL]	MIC (D: S. pneumoniae ATCC49619) (S. pneumoniae ATCC49619) [µg/mL]	MIC (E. coli OC2605; Escherichia coli) [µg/mL]	MIC (E. faecalis ATCC29212; Enterococcus faecalis) [µg/mL]	MIC (H. influenzae ATCC49247; Haemophilus influenzae, read-out: MIC (E: H. influenzae ATCC49247)) [µg/mL]	MIC (S. aureus ATCC29213; Staphylococcus aureus, read-out: MIC (B: S. aureus ATCC29213)) [µg/mL]	MIC (S. pneumoniae ATCC49619; Streptococcus pneumoniae, read-out: MIC (D: S. pneumoniae ATCC49619)) [µg/mL]	Structure (SMILES)
8 (≈ 9.7 µM)	0.12 (≈ 0.145 µM)	4 (≈ 4.85 µM)	0.25 (≈ 0.303 µM)	0.03 (≈ 0.0364 µM)	–	–	–	–	–	CC[C@H]1OC(=O)[C@H](C)C(=O)[C@H](C)[C@@H](O[C@@H]2O[C@H](C)C[C@H](N(C)C)[C@H]2O)[C@](C)(OC(=O)NNCc2ccc(-c3ncccn3)cc2)C[C@@H](C)C(=O)[C@H](C)[C@H]2NC(=O)O[C@@]21C [Compound 676]
>16	0.25 (≈ 0.289 µM)	8 (≈ 9.25 µM)	0.25 (≈ 0.289 µM)	0.03 (≈ 0.0347 µM)	–	–	–	–	–	CC[C@H]1OC(=O)[C@H](C)C(=O)[C@H](C)[C@@H](O[C@@H]2O[C@H](C)C[C@H](N(C)C)[C@H]2O)[C@](C)(OC(=O)NN(C)C/C=C/c2ccc(-c3ncccn3)cc2)C[C@@H](C)C(=O)[C@H](C)[C@H]2NC(=O)O[C@@]21C [Compound 744]
>16	0.25 (≈ 0.298 µM)	4 (≈ 4.77 µM)	2 (≈ 2.38 µM)	0.06 (≈ 0.0715 µM)	–	–	–	–	–	CC[C@H]1OC(=O)[C@H](C)C(=O)[C@H](C)[C@@H](O[C@@H]2O[C@H](C)C[C@H](N(C)C)[C@H]2O)[C@](C)(OC(=O)NN(C)Cc2ccc(-c3ncccn3)cc2)C[C@@H](C)C(=O)[C@H](C)[C@H]2NC(=O)O[C@@]21C [Compound 774]
>16	0.12 (≈ 0.141 µM)	4 (≈ 4.69 µM)	0.25 (≈ 0.293 µM)	0.03 (≈ 0.0352 µM)	–	–	–	–	–	CC[C@H]1OC(=O)[C@H](C)C(=O)[C@H](C)[C@@H](O[C@@H]2O[C@H](C)C[C@H](N(C)C)[C@H]2O)[C@](C)(OC(=O)NN(C)CCc2ccc(-c3ncccn3)cc2)C[C@@H](C)C(=O)[C@H](C)[C@H]2NC(=O)O[C@@]21C [Compound 803]
>16	0.12 (≈ 0.138 µM)	8 (≈ 9.23 µM)	0.5 (≈ 0.577 µM)	0.03 (≈ 0.0346 µM)	–	–	–	–	–	CC[C@H]1OC(=O)[C@H](C)C(=O)[C@H](C)[C@@H](O[C@@H]2O[C@H](C)C[C@H](N(C)C)[C@H]2O)[C@](C)(OC(=O)NN(CC)CCc2ccc(-c3ncccn3)cc2)C[C@@H](C)C(=O)[C@H](C)[C@H]2NC(=O)O[C@@]21C [Compound 804]
